Tests used:
Assay in all cases: relative viability (nuclei count vs DMSO), 5 days (fraction); higher = more cells survive
Sulindac + Trametinib = compound: CC1=C(CC(=O)O)c2cc(F)ccc2/C1=C\c1ccc([S+](C)[O-])cc1 [Sulindac] + CC(=O)Nc1cccc(-n2c(=O)n(C3CC3)c(=O)c3c(Nc4ccc(I)cc4F)n(C)c(=O)c(C)c32)c1 [Trametinib] (partner 0.02 µM)
Procedure, shortened: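 For relative viability, nuclei counts in treated wells were divided by those in vehicle wells. Lung cancer cell lines had been pin-tool dosed in 1536-well plates the day after seeding and cultured for 5 days, then fixed and stained in one step (final 0.05% Triton X-100, 1% formaldehyde, 1 ug/ml Hoechst) and imaged at 4×. Doses were one drug alone or a fixed anchor-drug dose plus five library-drug doses (not always all listed) in √10 steps, and values are duplicate-plate medians.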

Sulindac = compound: CC1=C(CC(=O)O)c2cc(F)ccc2/C1=C\c1ccc([S+](C)[O-])cc1 [Sulindac]
Procedure, shortened: (§1)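 Hoechst staining, done together with fixation and permeabilisation, marked nuclei for 4× imaging and MetaXpress counting. This followed 5 days without medium change after lung cancer cell lines, kept overnight at 37 °C in 1536-well plates, were pinned with five library-drug doses (not always all listed) spaced by √10 on vehicle-anchored plates. Viability is the ratio of treated-well to vehicle-well nuclei, expressed as a median across plates. Plates passed only at control CV below 25% with at least one doubling.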

Staurosporine = compound: CN[C@@H]1C[C@H]2O[C@@](C)([C@@H]1OC)n1c3ccccc3c3c4c(c5c6ccccc6n2c5c31)C(=O)NC4 [Staurosporine]
Procedure, shortened: as §1

5-Fluorouracil = compound: O=c1[nH]cc(F)c(=O)[nH]1 [5-Fluorouracil]
Procedure, shortened: as §1

Cell Line	relative viability (Sulindac + Trametinib; first compound 0.08 µM)	relative viability (Sulindac + Trametinib; first compound 0.253 µM)	relative viability (Sulindac + Trametinib; first compound 0.8 µM)	relative viability (Sulindac + Trametinib; first compound 2.53 µM)	relative viability (Sulindac + Trametinib; first compound 8 µM)	relative viability (Sulindac; 0.08 µM)	relative viability (Sulindac; 0.253 µM)	relative viability (Sulindac; 0.8 µM)	relative viability (Sulindac; 2.53 µM)	relative viability (Sulindac; 8 µM)	relative viability (Staurosporine; 0.005 µM)	relative viability (Staurosporine; 0.01581 µM)	relative viability (Staurosporine; 0.05 µM)	relative viability (Staurosporine; 0.1581 µM)	relative viability (Staurosporine; 0.5 µM)	relative viability (5-Fluorouracil; 0.02 µM)	relative viability (5-Fluorouracil; 0.2 µM)	relative viability (5-Fluorouracil; 0.6325 µM)	relative viability (5-Fluorouracil; 2 µM)
NCI-H1993	0.472	0.569	0.453	0.444	0.585	0.923	0.867	0.82	0.83	0.953	1.02	0.537	0.57	0.458	0.329	1.01	0.665	0.672	0.749
NCI-H358	0.132	0.132	0.128	0.114	0.14	0.918	1.01	0.74	0.999	1.16	1.03	0.326	0.203	0.117	0.104	1	1.05	0.882	0.584
SK-LU-1	0.657	0.486	0.435	0.398	0.529	1.21	1.12	0.805	0.975	1.28	0.704	0.274	0.191	0.207	0.165	0.996	1.1	0.968	0.83
NCI-H1915	0.303	0.307	0.246	0.302	0.303	1.13	1.09	0.878	0.965	1.03	0.944	0.119	0.406	0.18	0.118	0.818	0.986	0.956	0.779
NCI-H650	1.03	1.03	0.955	1	1.07	1.1	1.04	0.91	0.849	1.27	0.63	0.321	0.236	0.229	0.252	0.904	0.648	0.411	0.381
NCI-H441	0.423	0.579	0.331	0.492	0.494	1.34	1.25	0.78	1.09	1.37	0.889	0.275	0.266	0.18	0.129	0.887	0.866	0.591	0.385
COR-L 105	0.374	0.472	0.445	0.45	0.449	1.03	0.894	0.891	0.91	1.25	0.636	0.295	0.357	0.274	0.193	0.896	0.927	0.819	0.5
NCI-H2009	0.256	0.266	0.283	0.245	0.33	1.1	1.08	0.972	1	1.11	0.452	0.227	0.231	0.167	0.109	1.1	1.02	0.82	0.652
NCI-H1437	0.644	0.568	0.461	0.515	0.525	1.14	1.02	0.857	1.01	1.17	0.918	0.705	0.704	0.306	0.153	0.626	0.289	0.25	0.216
PC-3 [JPC-3]	0.668	0.659	0.701	0.695	0.725	1.16	1.03	0.926	1.02	1.12	1.02	0.36	0.698	0.384	0.317	0.967	1.1	0.954	0.743
NCI-H1703						1.11	1	0.915	0.917	1.26	0.512	0.291	0.186	0.161	0.112	1.17	0.999	0.848	0.562
NCI-H1944	0.476	0.418	0.328	0.421	0.487	0.997	1.03	0.908	0.904	1.11	0.983	0.699	0.567	0.353	0.246	0.91	0.905	0.293	0.195
EBC-1						1.12	1.14	0.705	1.09	1.1	0.623	0.395	0.239	0.2	0.12	1.03	0.979	0.934	0.619
ABC-1						1.07	0.871	0.981	0.838	1.3	0.42	0.283	0.262	0.172	0.129	1.04	1.03	0.847	0.788
NCI-H1563						0.898	0.973	0.936	0.967	1.14	0.724	0.592	0.542	0.547		0.952	1.01	1	0.815
NCI-H1299						1.13	1.09	0.908	1.05	1.08	0.815	0.491	0.284	0.207	0.137	1.1	1.05	0.955	0.703
A549						1.13	1.04	0.754	1.05	1.17	0.716	0.377	0.256	0.0723	0.0395	1.08	0.854	0.338	0.136
NCI-H1623						0.896	0.963	0.936	0.961	1	1.14	1.12	1.08	0.932	0.519	0.581	0.355	0.283	0.267
Calu-6						1.11	1.03	0.835	1.04	1.22	0.912	0.553	0.41	0.126	0.0704	1.07	1.04	0.872	0.508
